Our source for the methanandamide binding values is article PMC6906232 (The Journal of pharmacy and pharmacology, 2019).

This assay deals with D184A mutant CB1 receptor (Homo sapiens, UniProt P21554, D184A). Briefly: Methanandamide competition binding with [3H]CP55940 as tracer. The following applies: [3H]CP55940 tracer.
D184A mutant CB1 receptor, sequence (P21554 whole entry D184A): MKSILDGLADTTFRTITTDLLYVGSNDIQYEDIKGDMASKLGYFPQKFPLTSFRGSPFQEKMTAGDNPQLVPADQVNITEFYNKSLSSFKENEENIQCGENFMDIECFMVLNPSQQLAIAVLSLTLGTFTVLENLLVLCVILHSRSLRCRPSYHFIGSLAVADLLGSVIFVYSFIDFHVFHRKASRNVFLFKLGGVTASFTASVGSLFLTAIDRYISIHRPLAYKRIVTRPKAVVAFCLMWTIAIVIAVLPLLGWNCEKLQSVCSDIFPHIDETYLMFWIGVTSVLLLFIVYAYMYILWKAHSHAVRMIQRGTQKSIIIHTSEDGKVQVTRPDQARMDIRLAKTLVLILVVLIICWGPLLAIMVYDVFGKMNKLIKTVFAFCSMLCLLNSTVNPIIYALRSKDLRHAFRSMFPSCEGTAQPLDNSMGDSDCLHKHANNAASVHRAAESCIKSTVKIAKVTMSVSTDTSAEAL

`CCCCC/C=C\C/C=C\C/C=C\C/C=C\CCCC(=O)N[C@H](C)CO` [methanandamide]: the methanandamide binding entry (agonist alone, no modulator) was “did not bind” and the methanandamide binding result (with 1 μM PSNCBAM-1) was “binding was restored”.
